Holding throughout (type): in vivo
One test deals with Sphaerotheca fuliginea. The test is described as follows: Sphaerotheca test (cucumber)/protective. As to conditions: Podosphaera fuliginea, 168 h, 500 ppm active substance, protective, evaluation 7 days after inoculation, read-out: degree of effectiveness. As to the method: • Solvent: 49 parts by weight of N,N-dimethylformamide • Emulsifier: 1 part by weight of alkylaryl polyglycol ether (polyoxyethylene (16) tristearylphenyl ether) To prepare a suitable active substance composition, 1 part by weight of active substance is mixed with the given amounts of solvents and emulsifier and the concentrate is diluted to the desired concentration using water. For the testing of protective effectiveness, young cucumber plants are sprayed with the active substance composition in the application rate given. One day after treatment, the plants are inoculated with a suspension of spores of Sphaerotheca fuliginea. The plants are then placed in a greenhouse at 70% relative humidity and a temperature of 23° C. Evaluation is carried out 7 days after the inoculation. In this connection, 0% means a degree of effectiveness corresponding to that of the control, while a degree of effectiveness of 100% means that no infestation is observed.

For test [1], the system named is Puccinia triticina. The test is described as follows: Puccinia triticina test (wheat)/curative. As to conditions: 192 h, 500 ppm active substance, curative, evaluation 8 days after inoculation, read-out: degree of effectiveness. As to the method: (§1) • Solvent: 50 parts by weight of N,N-dimethylacetamide • Emulsifier: 1 part by weight of alkylaryl polyglycol ether (polyoxyethylene (16) tristearylphenyl ether)
(§2) To prepare a suitable active substance composition, 1 part by weight of active substance is mixed with the given amounts of solvent and emulsifier and the concentrate is diluted to the desired concentration using water.
For the testing of curative effectiveness, young plants are sprayed with a suspension of spores of Puccinia triticina. The plants remain in an incubation chamber at 20° C. and 100% relative humidity for 48 hours and are then sprayed with the active substance composition in the application rate given. The plants are placed in a greenhouse at a temperature of approximately 20° C. and a relative humidity of approximately 80%.
(§3) Evaluation is carried out 8 days after the inoculation. In this connection, 0% means a degree of effectiveness corresponding to that of the control, while a degree of effectiveness of 100% means that no infestation is observed.

For test [2], the system named is Puccinia triticina. Briefly: Puccinia triticina test (wheat)/protective. The settings on record: 192 h, 500 ppm active substance, protective, evaluation 8 days after inoculation, read-out: degree of effectiveness. As to the method: as §1, §2
For the testing of protective effectiveness, young plants are sprayed with the active substance composition in the application rate given. After the spray coating has been dried on, the plants are sprayed with a suspension of spores of Puccinia triticina. The plants remain in an incubation chamber at 20° C. and 100% relative humidity for 48 hours. The plants are placed in a greenhouse at a temperature of approximately 20° C. and a relative humidity of approximately 80%.
as §3

The subject of another test is Alternaria solani. Briefly: Alternaria test (tomato)/protective. The settings on record: 72 h, 100 ppm active substance, protective, evaluation 3 days after inoculation, read-out: degree of effectiveness. The protocol:
• Solvents: 24.5 parts by weight of acetone • 24.5 parts by weight of dimethylacetamide • Emulsifier: 1 part by weight of alkylaryl polyglycol ether (polyoxyethylene (16) tristearylphenyl ether)
To prepare a suitable active substance composition, 1 part by weight of substance is mixed with the given amounts of solvents and emulsifier and the concentrate is diluted to the desired concentration using water.
For the testing of protective effectiveness, young plants are sprayed with the active substance composition in the application rate given. After the spray coating has been dried on, the plants are inoculated with an aqueous suspension of spores of Alternaria solani. The plants are then placed in an incubation chamber at approximately 20° C. and 100% relative humidity.
Evaluation is carried out 3 days after the inoculation. In this connection, 0% means a degree of effectiveness corresponding to that of the control, while a degree of effectiveness of 100% means that no infestation is observed.

Where only a bound is given, the exact number is not on record here.

As to `CCN(C)C=Nc1cc(C)c(Oc2nc([C@@H]3C[C@H]3c3ccccc3)ns2)cc1Cl` (relative stereo) [Compound 29, rel-N′-[2-chloro-5-methyl-4-({3-[(1R,2R)-2-phenylcyclopropyl]-1,2,4-thiadiazol-5-yl}oxy)phenyl]-N-ethyl-N-methylimidoformamide], the pest or weed control at 500 ppm with Sphaerotheca fuliginea, with Puccinia triticina [1] and in the test on Puccinia triticina [2] was ≥ 70% in each case.
Consider `Cc1cc(N=CN(C)C(C)C)c(Cl)cc1Oc1nc([C@@H]2C[C@H]2c2ccccc2)ns1` (relative stereo) [Compound 31, rel-N′-[2-chloro-5-methyl-4-({3-[(1R,2R)-2-phenylcyclopropyl]-1,2,4-thiadiazol-5-yl}oxy)phenyl]-N-methyl-N-(propan-2-yl)imidoformamide], for which the pest or weed control at 500 ppm with Sphaerotheca fuliginea, in the test with Puccinia triticina [1] and with Puccinia triticina [2] was ≥ 70% in each case.
Consider `Cc1cc(N=CN(C)C(C)C)c(Cl)cc1Oc1nc(C2(Cl)CC2)ns1` [Compound 4, N′-(2-chloro-4-{[3-(1-chlorocyclopropyl)-1,2,4-thiadiazol-5-yl]oxy}-5-methylphenyl)-N-methyl-N-propan-2-ylimidoformamide], for which the pest or weed control at 500 ppm in the test on Sphaerotheca fuliginea, in the test on Puccinia triticina [1] and in the test with Puccinia triticina [2] was ≥ 70% throughout.
Take `Cc1cc(/N=C/N2CCCCC2)c(Cl)cc1Oc1nc(C2(Cl)CC2)ns1` [Compound 5, 2-chloro-4-{[3-(1-chlorocyclopropyl)-1,2,4-thiadiazol-5-yl]oxy}-5-methyl-N-[(E)-piperidin-1-ylmethylidene]aniline]: the pest or weed control at 500 ppm in the test on Sphaerotheca fuliginea, in the test with Puccinia triticina [1] and with Puccinia triticina [2] was ≥ 70% throughout.
`Cc1cc(/N=C/N2CCCCC2)c(Cl)cc1Oc1nc(C(C)c2ccc(Cl)cc2)ns1` (stereo not shown) [Compound 7, 2-chloro-4-({3-[1-(4-chlorophenyl)ethyl]-1,2,4-thiadiazol-5-yl}oxy)-5-methyl-N-[(E)-piperidin-1-ylmethylidene]aniline]: the pest or weed control at 500 ppm with Sphaerotheca fuliginea is ≥ 70%.
`CCN(C)/C=N/c1cc(C)c(Oc2nc(CCc3ccc(Cl)cc3)ns2)cc1Cl` [Compound 9, N′-[2-chloro-4-({3-[2-(4-chlorophenyl)ethyl]-1,2,4-thiadiazol-5-yl}oxy)-5-methylphenyl]-N-ethyl-N-methylimidoformamide]: the pest or weed control at 500 ppm in the test with Sphaerotheca fuliginea, with Puccinia triticina [1] and in the test on Puccinia triticina [2] was ≥ 70% throughout.
With `Cc1cc(/N=C\N2CCCCC2)c(Cl)cc1Oc1nc(C(C)(C)c2ccc(Cl)cc2)ns1` [Compound 12, 2-chloro-4-({3-[2-(4-chlorophenyl)propan-2-yl]-1,2,4-thiadiazol-5-yl}oxy)-5-methyl-N-[(Z)-piperidin-1-ylmethylidene]aniline], the pest or weed control at 100 ppm in the test on Alternaria solani was ≥ 70%. For the same compound, in the test with Sphaerotheca fuliginea, the pest or weed control at 500 ppm is ≥ 70%.
In the case of `Cc1cc(/N=C\N2CCCCC2)c(Cl)cc1Oc1nc(/C=C/c2ccc(F)cc2)ns1` [Compound 16, 2-chloro-4-({3-[(E)-2-(4-fluorophenyl)ethenyl]-1,2,4-thiadiazol-5-yl}oxy)-5-methyl-N-[(Z)-piperidin-1-ylmethylidene]aniline], the pest or weed control at 500 ppm with Sphaerotheca fuliginea is ≥ 70%.
`CCN(C)/C=N/c1cc(C)c(Oc2nc(CCl)ns2)cc1Cl` [Compound 19, N′-(2-chloro-4-{[3-(chloromethyl)-1,2,4-thiadiazol-5-yl]oxy}-5-methylphenyl)-N-ethyl-N-methylimidoformamide]: the pest or weed control at 500 ppm with Puccinia triticina [1] was ≥ 70%.
On to `Cc1cc(N=CN(C)C(C)C)c(Cl)cc1Oc1nc(C2(c3ccc(Cl)cc3)CC2)ns1` [Compound 20, N′-[2-chloro-4-({3-[1-(4-chlorophenyl)cyclopropyl]-1,2,4-thiadiazol-5-yl}oxy)-5-methylphenyl]-N-methyl-N-(propan-2-yl)imidoformamide], for which the pest or weed control at 500 ppm with Sphaerotheca fuliginea, in the test on Puccinia triticina [1] and in the test with Puccinia triticina [2] was ≥ 70% each time.
For the compound `Cc1cc(/N=C\N2CCCCC2)c(Cl)cc1Oc1nc(C2(c3ccc(Cl)cc3)CC2)ns1` [Compound 21, 2-chloro-4-({3-[1-(4-chlorophenyl)cyclopropyl]-1,2,4-thiadiazol-5-yl}oxy)-5-methyl-N-[(Z)-piperidin-1-ylmethylidene]aniline], the pest or weed control at 500 ppm in the test with Sphaerotheca fuliginea was ≥ 70%.
Still for that read-out and setting: the value for `CCN(C)/C=N/c1cc(C)c(Oc2nc(COc3ccc(Cl)cc3)ns2)cc1Cl` [Compound 22, N′-[2-chloro-4-({3-[(4-chlorophenoxy)methyl]-1,2,4-thiadiazol-5-yl}oxy)-5-methylphenyl]-N-ethyl-N-methylimidoformamide] was ≥ 70%.
Turning to `C=CCN(C)C=Nc1cc(C)c(Oc2nc(C(C)(C)C)ns2)cc1Cl` [Compound 25, N′-{4-[(3-(tert-butyl)-1,2,4-thiadiazol-5-yl)oxy]-2-chloro-5-methylphenyl}-N-methyl-N-(prop-2-en-1-yl)imidoformamide], the pest or weed control at 500 ppm in the test with Sphaerotheca fuliginea, with Puccinia triticina [1] and in the test with Puccinia triticina [2] was ≥ 70% each time.
`Cc1cc(N=CN(C)CC2CC2)c(Cl)cc1Oc1nc(C(C)(C)C)ns1` [Compound 26, N′-{4-[(3-(tert-butyl)-1,2,4-thiadiazol-5-yl)oxy]-2-chloro-5-methylphenyl}-N-(cyclopropylmethyl)-N-methylimidoformamide]: the pest or weed control at 500 ppm in the test with Sphaerotheca fuliginea, in the test with Puccinia triticina [1] and in the test with Puccinia triticina [2] was ≥ 70% each time.
As to `CCN(C)/C=N/c1cc(C)c(Oc2nc(C(C)(C)Cc3ccccc3)ns2)cc1Cl` [Compound 28, N′-(2-chloro-5-methyl-4-{[3-(2-methyl-1-phenylpropan-2-yl)-1,2,4-thiadiazol-5-yl]oxy}phenyl)-N-ethyl-N-methylimidoformamide], in the test on Alternaria solani, the pest or weed control at 100 ppm is ≥ 70%. The pest or weed control at 500 ppm in the test on Sphaerotheca fuliginea and in the test with Puccinia triticina [2] was ≥ 70% in each case.
Consider `CCN(C)C=Nc1cc(C)c(Oc2nc(Cc3cccc(C(F)(F)F)c3)ns2)cc1Cl` [Compound 34, N′-[2-chloro-5-methyl-4-({3-[3-(trifluoromethyl)benzyl]-1,2,4-thiadiazol-5-yl}oxy)phenyl]-N-ethyl-N-methylimidoformamide], for which the pest or weed control at 500 ppm with Sphaerotheca fuliginea, in the test with Puccinia triticina [1] and in the test on Puccinia triticina [2] was ≥ 70% in each case.
On to `CCN(C)/C=N/c1cc(C)c(Oc2nc(COc3cccc(Cl)c3)ns2)cc1Cl` [Compound 35, N′-[2-chloro-4-({3-[(3-chlorophenoxy)methyl]-1,2,4-thiadiazol-5-yl}oxy)-5-methylphenyl]-N-ethyl-N-methylimidoformamide], for which the pest or weed control at 500 ppm with Sphaerotheca fuliginea, in the test with Puccinia triticina [1] and in the test on Puccinia triticina [2] was ≥ 70% in each case.
As to `CCN(C)/C=N/c1cc(C)c(Oc2nc(COc3ccccc3Cl)ns2)cc1Cl` [Compound 36, N′-[2-chloro-4-({3-[(2-chlorophenoxy)methyl]-1,2,4-thiadiazol-5-yl}oxy)-5-methylphenyl]-N-ethyl-N-methylimidoformamide], the pest or weed control at 500 ppm in the test with Sphaerotheca fuliginea and in the test on Puccinia triticina [1] was ≥ 70% each time.
For `CCN(C)/C=N/c1cc(C)c(Oc2nc(COc3ccccc3)ns2)cc1Cl` [Compound 37, N′-(2-chloro-5-methyl-4-{[3-(phenoxymethyl)-1,2,4-thiadiazol-5-yl]oxy}phenyl)-N-ethyl-N-methylimidoformamide], in the test on Sphaerotheca fuliginea, the pest or weed control at 500 ppm was ≥ 70%.
